Publication PMC6142817, “New Urea Derivatives Are Effective Anti-senescence Compounds Acting Most Likely via a Cytokinin-Independent Mechanism” (Frontiers in Plant Science, 2018)

Experiments:
[1] = system: young wheat plants under salt stress; assay: Salt stress experiment; type: in vivo, Triticum a. cv. Hereward; settings: 100 nM, 75 mM NaCl
Description: A plastic container was filled with 45 g of perlite and 200 mL of Hoagland's solution (control) or with the addition of ASES to a final concentration of 100 nM. Sterilized seeds of Triticum a. cv. Hereward (6 g) were sown on the surface. Both treatments were done in two repetitions. The plants were left to grow in optimal conditions (22°C, 16/8, light/dark, 130 μM m^−2 s^−1, humidity 60%) for 7 days. During this period, most of the water evaporated and the containers were adjusted to the same weight by the addition of fresh distilled water. After this, all the containers contained 50 g (mL) of water. Then 100 mM NaCl solution was added in the final volume of 150 mL. Final concentration of the salt was 75 mM. The plants were then left to grow, analyzed visually and photographed at certain time-points.

[2] = biological target: T1, Arabidopsis thaliana cytokinin oxidase/dehydrogenase 2 (AtCKX2) (Arabidopsis thaliana, UniProt Q9FUJ3); assay: AtCKX2 inhibition assay (PMS/MTT); type: biochemical; settings: PMS/MTT kinetic assay
T1 construct: made in house; host or cells: Saccharomyces cerevisiae strain 23344c ura-, plasmid pYES2-AtCKX2; cell-free growth medium used directly
T1 sequence (Q9FUJ3 23-501): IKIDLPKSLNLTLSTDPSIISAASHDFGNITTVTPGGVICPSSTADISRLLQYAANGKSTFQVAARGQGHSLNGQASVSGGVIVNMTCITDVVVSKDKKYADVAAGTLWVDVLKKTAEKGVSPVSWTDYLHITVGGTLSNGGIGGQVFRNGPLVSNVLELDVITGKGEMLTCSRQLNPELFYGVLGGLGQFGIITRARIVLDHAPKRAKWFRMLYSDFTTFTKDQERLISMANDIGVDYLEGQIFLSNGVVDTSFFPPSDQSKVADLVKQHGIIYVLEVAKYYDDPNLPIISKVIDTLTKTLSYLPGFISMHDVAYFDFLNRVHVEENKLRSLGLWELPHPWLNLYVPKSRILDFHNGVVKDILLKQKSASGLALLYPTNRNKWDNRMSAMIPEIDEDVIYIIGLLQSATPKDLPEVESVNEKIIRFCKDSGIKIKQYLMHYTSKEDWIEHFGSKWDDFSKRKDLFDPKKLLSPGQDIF
Description: The method based on the coupled redox reaction of phenazine methosulfate and 3-(4,5-dimethylthiazol-2-yl)-2,5-diphenyltetrazolium bromide resulting in the formation of a formazan dye was used to test the ability of the synthesized compounds to inhibit AtCKX2. The assay was performed as described previously (Frébort et al., [2002]). Cell-free growth medium of Saccharomyces cerevisiae strain 23344c ura- harboring the plasmid pYES2- AtCKX2 was used directly as a source of AtCKX2 (Frébortová et al., [2007]).

CRE1/AHK4 = CRE1/AHK4 (Arabidopsis thaliana, UniProt Q9C5U0); assay: Cytokinin receptor activation assay in E. coli (CRE1/AHK4); type: cell-based; parameters: expressed in transfected cells; host or cells: Escherichia coli strain KMI001, plasmid pIN-IIIAHK4; settings: E. coli bacterial receptor assay
Sequence of CRE1/AHK4 (Q9C5U0 whole entry): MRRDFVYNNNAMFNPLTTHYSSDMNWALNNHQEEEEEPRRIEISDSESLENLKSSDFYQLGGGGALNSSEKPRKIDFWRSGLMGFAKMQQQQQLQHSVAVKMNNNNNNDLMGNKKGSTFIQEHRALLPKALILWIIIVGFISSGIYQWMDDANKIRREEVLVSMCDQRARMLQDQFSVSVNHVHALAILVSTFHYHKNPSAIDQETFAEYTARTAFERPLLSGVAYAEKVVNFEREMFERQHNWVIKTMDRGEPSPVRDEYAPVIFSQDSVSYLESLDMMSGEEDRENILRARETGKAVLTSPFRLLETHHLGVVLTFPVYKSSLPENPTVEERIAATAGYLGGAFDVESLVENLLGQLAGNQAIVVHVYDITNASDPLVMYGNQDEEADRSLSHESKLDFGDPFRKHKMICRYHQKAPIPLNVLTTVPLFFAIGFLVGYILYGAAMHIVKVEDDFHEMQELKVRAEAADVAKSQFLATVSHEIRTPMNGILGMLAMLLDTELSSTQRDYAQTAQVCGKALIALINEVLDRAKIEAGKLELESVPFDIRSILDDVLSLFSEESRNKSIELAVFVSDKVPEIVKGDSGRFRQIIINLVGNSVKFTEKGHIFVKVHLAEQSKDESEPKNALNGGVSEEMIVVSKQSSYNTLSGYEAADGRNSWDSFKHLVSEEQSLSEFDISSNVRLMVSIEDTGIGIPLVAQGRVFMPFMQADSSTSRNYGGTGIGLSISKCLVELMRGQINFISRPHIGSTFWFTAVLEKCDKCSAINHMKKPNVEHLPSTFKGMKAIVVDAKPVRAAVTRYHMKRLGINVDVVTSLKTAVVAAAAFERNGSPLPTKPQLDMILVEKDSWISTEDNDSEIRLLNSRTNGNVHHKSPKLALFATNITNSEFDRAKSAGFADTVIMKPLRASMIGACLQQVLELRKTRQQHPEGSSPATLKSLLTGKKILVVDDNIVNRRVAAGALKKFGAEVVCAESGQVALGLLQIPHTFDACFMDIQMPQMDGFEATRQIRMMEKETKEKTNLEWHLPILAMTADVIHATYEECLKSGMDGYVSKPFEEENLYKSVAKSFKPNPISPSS
From the text: The activity of this enzyme is finally measured in the assay and corresponds to the ability of the tested compound to activate this cytokinin receptor. Both assays were done at least twice and the presented graphs are the most representative examples.

In the case of `COCCNC(=O)Nc1cnns1` [ASES, 1-(2-methoxy-ethyl)-3-1,2,3-thiadiazol-5-yl-urea], the “delay of senescence of the individual leaves compared to the untreated control” value [1] is reported as 5 to 6 days, the “% of plants with dry and/or completely yellow at least one quarter of the first leaf” value ([1]; twenty days after planting, control 81%) is reported as 8% and the “inhibition of AtCKX2” value [2] is reported as “neither ASES nor any of the other synthesized substances inhibited AtCKX2”. The “ability to activate the CRE1/AHK4 receptor” value (CRE1/AHK4) was “No other derivative from the series, including ASES, was able to activate”.
